Experimental findings from ChEMBL document CHEMBL4229529, “Synthesis, molecular docking, and biological activity of 2-vinyl chromones: Toward selective butyrylcholinesterase inhibitors for potential Alzheimer's disease therapeutics” (Bioorg Med Chem, 2018) are described below.

Structures are written as SMILES. Active and inactive are the calls of the source. No cut-off for these calls is given here. Bounds are passed on as bounds.

Data set [1] has as its target Acetylcholinesterase (Homo sapiens, UniProt P22303).
Description: Inhibition of human erythrocyte AChE using acetylthiocholine iodide as substrate incubated for 10 mins followed by substrate addition by Ellman's method
For data set [2], the target named is T1, Cholinesterase (Equus caballus, UniProt P81908).
T1 sequence (P81908 whole entry): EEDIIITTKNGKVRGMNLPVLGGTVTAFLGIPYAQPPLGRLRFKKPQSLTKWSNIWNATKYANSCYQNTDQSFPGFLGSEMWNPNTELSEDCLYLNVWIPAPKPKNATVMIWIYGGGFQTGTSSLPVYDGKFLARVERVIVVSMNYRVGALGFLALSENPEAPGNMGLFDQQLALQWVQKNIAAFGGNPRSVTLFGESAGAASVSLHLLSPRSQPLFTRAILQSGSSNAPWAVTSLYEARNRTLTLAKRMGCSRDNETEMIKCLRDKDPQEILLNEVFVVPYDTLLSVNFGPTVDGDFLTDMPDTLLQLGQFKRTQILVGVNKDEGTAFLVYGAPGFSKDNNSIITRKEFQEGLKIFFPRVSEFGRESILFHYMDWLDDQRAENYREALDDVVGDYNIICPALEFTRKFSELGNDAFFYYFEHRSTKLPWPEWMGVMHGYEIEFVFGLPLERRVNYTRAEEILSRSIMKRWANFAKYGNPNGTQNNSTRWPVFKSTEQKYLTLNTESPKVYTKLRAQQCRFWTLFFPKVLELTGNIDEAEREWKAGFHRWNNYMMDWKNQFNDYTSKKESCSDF
Description: Inhibition of equine serum BChE using butylthiocholine iodide as substrate incubated for 10 mins followed by substrate addition by Ellman's method
Data set [3] has as its target T2, Liver carboxylesterase (Sus scrofa, UniProt Q29550).
T2 sequence (Q29550 whole entry): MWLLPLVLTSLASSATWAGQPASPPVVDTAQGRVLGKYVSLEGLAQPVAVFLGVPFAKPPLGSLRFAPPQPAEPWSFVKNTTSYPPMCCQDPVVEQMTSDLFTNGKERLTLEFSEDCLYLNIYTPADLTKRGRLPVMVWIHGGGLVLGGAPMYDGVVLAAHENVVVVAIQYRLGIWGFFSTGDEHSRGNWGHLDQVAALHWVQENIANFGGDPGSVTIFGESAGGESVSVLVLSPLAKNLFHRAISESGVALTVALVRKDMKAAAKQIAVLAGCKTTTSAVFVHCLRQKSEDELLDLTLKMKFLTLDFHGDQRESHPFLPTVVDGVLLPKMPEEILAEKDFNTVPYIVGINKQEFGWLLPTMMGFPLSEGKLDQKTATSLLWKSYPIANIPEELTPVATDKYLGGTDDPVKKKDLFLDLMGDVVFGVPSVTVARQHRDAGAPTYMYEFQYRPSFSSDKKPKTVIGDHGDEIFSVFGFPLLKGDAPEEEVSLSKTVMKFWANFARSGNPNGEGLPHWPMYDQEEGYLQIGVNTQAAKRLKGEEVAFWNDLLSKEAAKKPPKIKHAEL
Description: Inhibition of porcine liver carboxylesterase using 4-nitrophenol acetate as substrate incubated for 10 mins followed by substrate addition by spectrophotometric method

For data set [4], the target named is T2, Liver carboxylesterase. Nature of the data set: in vitro. The settings on record: pig, porcine liver carboxylesterase, probe 4-nitrophenol acetate.
Description: Inhibition of porcine liver carboxylesterase at 20 uM using 4-nitrophenol acetate as substrate incubated for 10 mins followed by substrate addition by spectrophotometric method relative to control
For data set [5], the target named is Cholinesterase (Equus caballus) (UniProt P81908). Put plainly: Non-competitive inhibition of equine serum BChE using butylthiocholine iodide as substrate incubated for 10 mins followed by substrate addition by Lineweaver-Burk double-reciprocal plot analysis.
Sequence of Cholinesterase (Equus caballus) (P81908 whole entry): as the sequence (P81908 whole entry) above
Data set [6] addresses T1, Cholinesterase. Put plainly: Competitive inhibition of equine serum BChE using butylthiocholine iodide as substrate incubated for 10 mins followed by substrate addition by Lineweaver-Burk double-reciprocal plot analysis.
In data set [7] the target is Cholinesterase (Equus caballus) (UniProt P81908). Nature of the data set: Inhibition of equine serum BChE at 20 uM using butylthiocholine iodide as substrate incubated for 10 mins followed by substrate addition by Ellman's method relative to control.

Sequence of Acetylcholinesterase (P22303 whole entry): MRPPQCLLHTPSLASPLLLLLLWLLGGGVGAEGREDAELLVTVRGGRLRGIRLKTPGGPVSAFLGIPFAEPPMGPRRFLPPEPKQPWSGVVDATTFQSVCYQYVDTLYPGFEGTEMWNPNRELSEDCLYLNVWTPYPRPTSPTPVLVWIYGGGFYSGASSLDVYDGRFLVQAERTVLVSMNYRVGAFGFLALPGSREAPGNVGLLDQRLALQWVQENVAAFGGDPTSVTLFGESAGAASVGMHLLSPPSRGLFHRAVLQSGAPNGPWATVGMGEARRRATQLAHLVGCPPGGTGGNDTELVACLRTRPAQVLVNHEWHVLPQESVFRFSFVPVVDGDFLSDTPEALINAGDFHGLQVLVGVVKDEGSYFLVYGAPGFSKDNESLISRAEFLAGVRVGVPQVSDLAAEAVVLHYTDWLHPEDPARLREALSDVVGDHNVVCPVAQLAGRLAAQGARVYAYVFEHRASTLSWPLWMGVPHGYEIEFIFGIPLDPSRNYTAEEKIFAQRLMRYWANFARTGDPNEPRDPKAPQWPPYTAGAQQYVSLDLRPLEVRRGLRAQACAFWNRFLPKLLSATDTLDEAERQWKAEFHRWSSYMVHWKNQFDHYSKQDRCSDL

With `C=Cc1oc2ccc(Br)cc2c(=O)c1CN(/C=C/C(C)=O)Cc1ccccc1`, the IC50 in data set [1] is > 20 µM; in data set [2], 13.5 µM; in data set [3] it was > 20 µM. Also, the inhibition at 10 min, 20 µM in data set [4] was 4.6%.
In data set [5], `C=Cc1oc2ccccc2c(=O)c1CN(/C=C/C(=O)OC)Cc1ccccc1` had an alphaKi of 1.94 µM. The concentration for half-maximal inhibition (IC50) was > 20 µM in data set [1], 6.31 µM in data set [2] and > 20 µM in data set [3]. The compound also displayed a Ki in data set [6] of 1.79 µM. In data set [4], this compound displayed an inhibition at 10 min, 20 µM of 23.6%.
With `CN1CCc2oc3ccccc3c(=O)c2C1`, the IC50 in data set [3] is > 20 µM. The compound further displayed an inhibition at 10 min, 20 µM in data set [4] of 6.4%. In addition, the inhibition entry in data set [7] is “inactive”.
With `O=c1c2c(oc3ccc(Br)cc13)CCN(Cc1ccccc1)C2`, the IC50 in data set [1], in data set [2] and in data set [3] was > 20 µM in each case. Also, the inhibition at 10 min, 20 µM in data set [4] amounted to 31.2%. Also, the inhibition in data set [7] stood at 3.3%.
`C=Cc1oc2ccc(Br)cc2c(=O)c1CN(/C=C/C(=O)OC)Cc1ccccc1` registered an alphaKi in data set [5] of 6.9 µM. The IC50 in data set [1] is > 20 µM; in data set [2], 2.27 µM; in data set [3] it was > 20 µM. Further, the affinity in data set [6], expressed as Ki, was 1.55 µM. The inhibition at 10 min, 20 µM in data set [4] worked out at 22.4%.
With `C=Cc1oc2c(OCC)cccc2c(=O)c1CN(/C=C/C(=O)OC)Cc1ccccc1`, the IC50 in data set [2] and in data set [3] was > 20 µM throughout. In addition, the inhibition at 10 min, 20 µM in data set [4] was found to be 25.9%. The same compound had an inhibition in data set [7] of 16.3%.
For the compound `C=Cc1oc2ccccc2c(=O)c1CN(Cc1ccccc1)/C(=C/C(=O)OC)C(=O)OC`, the IC50 in data set [1] was > 20 µM; in data set [2], 13.8 µM; in data set [3] it was > 20 µM. In data set [4], this compound had an inhibition at 10 min, 20 µM of 26.4%.
As to `CN1CCc2oc3ccc(Br)cc3c(=O)c2C1`, the IC50 in data set [1] and in data set [2] was > 20 µM throughout. For the same compound, in data set [7], the inhibition came out at 4.2%.
`C=Cc1oc2ccccc2c(=O)c1CN(/C=C/C(C)=O)Cc1ccccc1` registered an alphaKi in data set [5] of 9.14 µM. Besides, the values for the IC50 in data set [1], in data set [2] and in data set [3] were > 20 µM, 4.75 µM and > 20 µM, respectively. Further, in data set [6], the Ki stood at 2.12 µM. Besides, the inhibition at 10 min, 20 µM in data set [4] was determined as 10%.
`C=Cc1oc2ccc(Br)cc2c(=O)c1CN(Cc1ccccc1)/C(=C/C(=O)OC)C(=O)OC`: the IC50 in data set [1], in data set [2] and in data set [3] was > 20 µM in each case. This compound also registered an inhibition at 10 min, 20 µM in data set [4] of 15.2%. In data set [7], this compound came in with an inhibition of 21.9%.
Turning to `C=Cc1oc2c(OCC)cccc2c(=O)c1CN(Cc1ccccc1)/C(=C/C(=O)OC)C(=O)OC`, the IC50 in data set [2] and in data set [3] was > 20 µM throughout. The inhibition at 10 min, 20 µM in data set [4] amounted to 14.4%. The inhibition in data set [7] is 11.2%.
Turning to `CCOc1cccc2c(=O)c3c(oc12)CCN(/C(=C/C(=O)OC)C(=O)OC)C3`, the IC50 in data set [1], in data set [2] and in data set [3] was > 20 µM throughout. The inhibition at 10 min, 20 µM in data set [4] amounted to 3.5%. The compound further gave an inhibition in data set [7] of 20.7%.
Turning to `O=[N+]([O-])c1ccc(OP(=O)(O)Oc2ccc([N+](=O)[O-])cc2)cc1`, in data set [7], the inhibition result was “inactive”.
For the compound `C=Cc1oc2c(OCC)cccc2c(=O)c1CN(C)/C=C/C(=O)OC`, in data set [3], the IC50 is > 20 µM. Also, in data set [4], the inhibition at 10 min, 20 µM stood at 7.9%. Further, the inhibition entry in data set [7] was “inactive”.
Regarding `C=Cc1oc2ccc(Br)cc2c(=O)c1CN(C)/C=C/C(=O)OC`, the IC50 in data set [1], in data set [2] and in data set [3] was > 20 µM each time. Besides, in data set [4], the inhibition at 10 min, 20 µM is 10.5%. For the same compound, the inhibition in data set [7] worked out at 14.1%.
For `C=Cc1oc2c(OCC)cccc2c(=O)c1CN(/C=C/C(C)=O)Cc1ccccc1`, the IC50 in data set [2] worked out at 50.1 µM.
On to `COC(=O)/C=C(\C(=O)OC)N1CCc2oc3ccc(Br)cc3c(=O)c2C1`, for which the IC50 in data set [1], in data set [2] and in data set [3] was > 20 µM each time. The same compound came in with an inhibition at 10 min, 20 µM in data set [4] of 5.1%. Besides, the inhibition in data set [7] was 4.3%.
With `CCOc1cccc2c(=O)c3c(oc12)CCN(Cc1ccccc1)C3`, the IC50 in data set [1] and in data set [2] was > 20 µM in each case. Moreover, the inhibition in data set [7] came to 13.2%.
As to `COC(=O)/C=C(\C(=O)OC)N1CCc2oc3ccccc3c(=O)c2C1`, the half-maximal inhibitory concentration (IC50) in data set [2] and in data set [3] was > 20 µM throughout. This compound also gave an inhibition at 10 min, 20 µM in data set [4] of 19.8%. Also, the inhibition in data set [7] came out at 7.5%.
For the compound `CCOc1cccc2c(=O)c3c(oc12)CCN(C)C3`, the IC50 in data set [1] and in data set [3] was > 20 µM each time. Further, in data set [4], the inhibition at 10 min, 20 µM was determined as 7.6%. Besides, the inhibition result in data set [7] is “inactive”.
`O=c1c2c(oc3ccccc13)CCN(Cc1ccccc1)C2`: the IC50 in data set [1] and in data set [2] was > 20 µM throughout. Besides, the inhibition in data set [7] worked out at 13%.
Consider `C=Cc1oc2ccccc2c(=O)c1CN(C)/C=C/C(=O)OC`, for which the IC50 in data set [2] and in data set [3] was > 20 µM each time. In data set [4], this compound gave an inhibition at 10 min, 20 µM of 6.3%. The compound also returned an inhibition in data set [7] of 18.4%.
